Data taken from patent US11364299B2, “Non-addictive analgesic sustained-release drug delivery system and preparation method thereof” (LIPONT PHARMACEUTICALS INC., priority 2013, dated 2022).
Structures can show the parent of a compound that is named as a salt. Where two headings read alike, the source gives them in different places.

How the values were obtained:
[1] = Verification of the solubility of various local anesthetics in the sustained-release drug delivery system; type: physicochemical; settings: 4° C., 24 hours, 15-20 mg/ml
Method: The 12 local anesthetics were each added into the selected drug delivery systems, and the dissolution process of the drugs was observed (norm: 15-20 mg/ml, observed at 25° C. for 24 hours with recordation; or observed at 4° C. for 24 hours with recordation).

[2] = Solubility tests of ropivacaine free base and corresponding salts; type: physicochemical
Source text: If a drug dissolved completely, addition of this drug was continued until saturation.

[3] = Formulation experiment for sustained-release formulation delivery system; type: physicochemical; settings: for Solubility: in ethanol, benzyl alcohol, benzyl benzoate, and ethyl lactate
Source text: Detailed experimental procedures were similar to those in Experimental Example 2. As shown in the experimental results, part of the drug delivery system combinations that may be used in the formula of the sustained-release formulation delivery system is as follows: […]

[4] = In vitro dissolution stability of the drug formulations; type: physicochemical; settings: compared with ropivacaine free base
[5] = cited from earlier work
plasma proteins = settings: concentration-dependent; cited from earlier work
patients = settings: cited from earlier work
[6] = Compound compositions: dezocine and parecoxib in the drug delivery systems; type: physicochemical; settings: prescribed compositions of Table IV; 25° C. and 4° C., about 24 h
[7] = Structural stability of ropivacaine sustained-release formulations (content determination); type: physicochemical; settings: content determination after 30 days
[8] = in glyceryl monoacetate, 25° C.
[9] = in tetrahydrofurfuryl polyethylene glycol ether, 25° C.

CCN(CC)CCOC(=O)c1ccc(N)cc1 [procaine]
solubility in the ethyl oleate/soybean oil drug delivery system [1]: slightly precipitated

CCCN1CCCC[C@H]1C(=O)Nc1c(C)cccc1C.CS(=O)(=O)O [Ropivacaine methansulfonate]
Solubility ([2]; in anhydrous ethanol, 25° C.): 320000 µg/mL
Solubility ([2]; in anhydrous ethanol, 25° C., listed as ropivacaine methansulfonate): exceeding 190 mg/ml
Solubility ([2]; in benzyl alcohol, 25° C.): 550000 µg/mL
Solubility ([2]; in benzyl alcohol, 25° C., listed as ropivacaine methansulfonate): exceeding 190 mg/ml
Solubility ([2]; in benzyl benzoate, 25° C.): 2000 µg/mL
Solubility ([2]; in castor oil, 25° C.): 2000 µg/mL
Solubility ([2]; in corn oil, 25° C.): 1700 µg/mL
Solubility ([2]; in ethyl lactate, 25° C.): 198000 µg/mL
Solubility ([2]; in ethyl lactate, 25° C., listed as ropivacaine methansulfonate): exceeding 190 mg/ml
Solubility ([2]; in ethyl oleate, 25° C.): 2000 µg/mL
Solubility [2, 8]: 50000 µg/mL
Solubility ([2]; in olive oil, 25° C.): 2000 µg/mL
Solubility ([2]; in sesame oil, 25° C.): 1700 µg/mL
Solubility ([2]; in soybean oil, 25° C.): 2500 µg/mL
Solubility [2, 9]: 13200 µg/mL
solubility in mixed solvent [3]: increased solubility
solubility in various prescribed compositions [4]: slightly poorer than that of ropivacaine free base

CCCN1CCCC[C@H]1C(=O)Nc1c(C)cccc1C [Ropivacaine hydrochloride]
Solubility ([2]; anhydrous ethanol, 25 °C, organic solvent or mixture, thermodynamic from solid, in anhydrous ethanol, read-out: Solubility): 95000 µg/mL
Solubility ([2]; benzyl alcohol, 25 °C, organic solvent or mixture, thermodynamic from solid, in benzyl alcohol, read-out: Solubility): > 100000 µg/mL
Solubility ([2]; benzyl benzoate, 25 °C, organic solvent or mixture, thermodynamic from solid, in benzyl benzoate, read-out: Solubility): 2500 µg/mL
Solubility ([2]; castor oil, 25 °C, oil or lipid, thermodynamic from solid, in castor oil, read-out: Solubility): 1700 µg/mL
Solubility ([2]; corn oil, 25 °C, oil or lipid, thermodynamic from solid, in corn oil, read-out: Solubility): 2500 µg/mL
Solubility ([2]; ethyl lactate, 25 °C, organic solvent or mixture, thermodynamic from solid, in ethyl lactate, read-out: Solubility): 16500 µg/mL
Solubility ([2]; ethyl oleate, 25 °C, oil or lipid, thermodynamic from solid, in ethyl oleate, read-out: Solubility): 2200 µg/mL
Solubility ([2]; glyceryl monoacetate, 25 °C, organic solvent or mixture, thermodynamic from solid, in glyceryl monoacetate, read-out: Solubility): 30000 µg/mL
Solubility ([2]; in benzyl alcohol, 25° C.): 140000 µg/mL
Solubility ([2]; olive oil, 25 °C, oil or lipid, thermodynamic from solid, in olive oil, read-out: Solubility): 1700 µg/mL
Solubility ([2]; sesame oil, 25 °C, oil or lipid, thermodynamic from solid, in sesame oil, read-out: Solubility): 2000 µg/mL
Solubility ([2]; soybean oil, 25 °C, oil or lipid, thermodynamic from solid, in soybean oil, read-out: Solubility): 2000 µg/mL
Solubility ([2]; tetrahydrofurfuryl polyethylene glycol ether, 25 °C, organic solvent or mixture, thermodynamic from solid, in tetrahydrofurfuryl polyethylene glycol ether, read-out: Solubility): 9000 µg/mL
solubility in mixed solvent ([3]; mixture of benzyl benzoate with one of ethanol and benzyl alcohol): increased solubility

CCCN1CCCC[C@H]1C(=O)Nc1c(C)cccc1C [Ropivacaine, 1-propy 1-2,6-pipeco loxylidide laevo isomer]
epidural absorption, half-time of fast phase ([5]; epidural): 14 min
epidural absorption, half-time of slow phase ([5]; epidural): 4 h
steady distribution volume ([5]; in vivo): 47 L
association with plasma proteins (plasma proteins): 94%
cardiac toxicity and safety (patients; 0.1% ropivacaine versus 0.1% bupivacaine, elderly patients): relatively lower cardiac toxicity and higher safety in use
analgesic effect of continuous epidural infusion (patients; 0.1% ropivacaine, elderly patients after lower limb surgeries (Zonglin YANG et al.)): comparable to that with 0.1% bupivacaine
transaxillary brachial plexus block (patients; 0.375% ropivacaine versus 0.25% bupivacaine (Qihong ZHAO et al.)): faster onset, better efficacy, and fewer adverse effects as compared to 0.25% bupivacaine
local infiltration anesthetic analgesia (patients; human, in vivo): substantial and lasting analgesic effect with few adverse reactions
analgesic duration (patients; human, one clinical injection): about 8 hours
gynecologic post-operative patient-controlled analgesia (patients; versus bupivacaine (Shunfu CHEN)): more suitable for patient-controlled analgesic local anesthesia in gynecologic post-operative patients than bupivacaine

CCC(=O)NS(=O)(=O)c1ccc(-c2c(-c3ccccc3)noc2C)cc1 [parecoxib]
Solubility [3]: good solubility
Solubility [6]: > 20000 µg/mL

C[C@@]12CCCCC[C@@H](Cc3ccc(O)cc31)[C@@H]2N [dezocine]
Solubility [3]: good solubility
Solubility [6]: > 30000 µg/mL

CCCN1CCCC[C@H]1C(=O)Nc1c(C)cccc1C [Ropivacaine free base]
Solubility ([2]; in anhydrous ethanol, 25° C.): 155000 µg/mL
Solubility ([2]; in anhydrous ethanol, 25° C., listed as ropivacaine free base): exceeding 150 mg/ml
Solubility ([2]; in benzyl alcohol, 25° C.): 225000 µg/mL
Solubility ([2]; in benzyl alcohol, 25° C., listed as ropivacaine free base): exceeding 150 mg/ml
Solubility ([2]; in benzyl benzoate, 25° C.): 70000 µg/mL
Solubility ([2]; in castor oil, 25° C.): 17000 µg/mL
Solubility ([2]; in corn oil, 25° C.): 9400 µg/mL
Solubility ([2]; in ethyl lactate, 25° C.): 80000 µg/mL
Solubility ([2]; in ethyl oleate, 25° C.): 14900 µg/mL
Solubility [2, 8]: 18000 µg/mL
Solubility ([2]; in olive oil, 25° C.): 9800 µg/mL
Solubility ([2]; in sesame oil, 25° C.): 11700 µg/mL
Solubility ([2]; in soybean oil, 25° C.): 9600 µg/mL
Solubility [2, 9]: 39600 µg/mL
solubility in mixed solvent [3]: increased solubility
structural stability in various prescribed compositions [7]: structurally stable and did not degrade

CCCCNc1ccc(C(=O)OCCN(C)C)cc1 [tetracaine]
solubility in the ethyl oleate/soybean oil drug delivery system [1]: slightly precipitated
